{
  "source": "the supplement of paper PMC10307832",
  "assay_in_all_cases": "relative viability (nuclei count vs DMSO), 5 days (fraction); higher = more cells survive",
  "key": {"[1]": {"compound": "O=C(/C=C/c1ccccc1)NC(NC(=S)Nc1cccc2cccnc12)C(Cl)(Cl)Cl [Salubrinal] + COc1cccc2cc(-c3nc([C@H]4CC[C@H](C(=O)O)CC4)n4ncnc(N)c34)[nH]c12 [OSI-027] (partner 0.5 µM)", "procedure,_shortened": "(§1)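 Relative viability was taken as the ratio of nuclei in treated wells to nuclei in vehicle wells. Lung cancer cell lines in 1536-well plates received compounds by pin tool one day after seeding, either one drug alone or a fixed anchor-drug dose plus five library-drug doses (not always all listed) in √10 steps. Nuclei were counted on 4× images after 5 days of treatment, and values are medians of duplicate plates.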"}, "[2]": {"compound": "O=C(/C=C/c1ccccc1)NC(NC(=S)Nc1cccc2cccnc12)C(Cl)(Cl)Cl [Salubrinal] + NC(=O)Nc1cc(-c2cccc(F)c2)sc1C(=O)N[C@H]1CCCNC1 [AZD7762] (partner 0.2 µM)", "procedure,_shortened": "as §1"}, "[3]": {"compound": "Cc1ccc2nc(NCCN)c3ncc(C)n3c2c1 + CCNC(=O)c1noc(-c2cc(C(C)C)c(O)cc2O)c1-c1ccc(CN2CCOCC2)cc1 [Luminespib] (partner 0.01 µM)", "procedure,_shortened": "as §1"}, "[4]": {"compound": "Cc1ccc2nc(NCCN)c3ncc(C)n3c2c1 + CS(=O)(=O)N1CCN(Cc2cc3nc(-c4cccc5[nH]ncc45)nc(N4CCOCC4)c3s2)CC1 [Pictilisib] (partner 1 µM)", "procedure,_shortened": "as §1"}},
  "data": [
    {"cell line": "NCI-H1734", "values": [
      {"measurement": "relative viability", "setting": "[1]; first compound 0.08 µM", "value": 0.724},
      {"measurement": "relative viability", "setting": "[1]; first compound 0.253 µM", "value": 0.572},
      {"measurement": "relative viability", "setting": "[1]; first compound 0.8 µM", "value": 0.633},
      {"measurement": "relative viability", "setting": "[1]; first compound 2.53 µM", "value": 0.542},
      {"measurement": "relative viability", "setting": "[1]; first compound 8 µM", "value": 0.636},
      {"measurement": "relative viability", "setting": "[2]; first compound 0.08 µM", "value": 0.596},
      {"measurement": "relative viability", "setting": "[2]; first compound 0.253 µM", "value": 0.657},
      {"measurement": "relative viability", "setting": "[2]; first compound 0.8 µM", "value": 0.613},
      {"measurement": "relative viability", "setting": "[2]; first compound 2.53 µM", "value": 0.572},
      {"measurement": "relative viability", "setting": "[2]; first compound 8 µM", "value": 0.515},
      {"measurement": "relative viability", "setting": "[3]; first compound 0.04 µM", "value": 0.217},
      {"measurement": "relative viability", "setting": "[3]; first compound 0.1265 µM", "value": 0.251},
      {"measurement": "relative viability", "setting": "[3]; first compound 0.4 µM", "value": 0.197},
      {"measurement": "relative viability", "setting": "[3]; first compound 1.265 µM", "value": 0.184},
      {"measurement": "relative viability", "setting": "[3]; first compound 4 µM", "value": 0.176},
      {"measurement": "relative viability", "setting": "[4]; first compound 0.04 µM", "value": 0.457},
      {"measurement": "relative viability", "setting": "[4]; first compound 0.1265 µM", "value": 0.481},
      {"measurement": "relative viability", "setting": "[4]; first compound 0.4 µM", "value": 0.451},
      {"measurement": "relative viability", "setting": "[4]; first compound 1.265 µM", "value": 0.409},
      {"measurement": "relative viability", "setting": "[4]; first compound 4 µM", "value": 0.424}
    ]},
    {"cell line": "NCI-H1755", "values": [
      {"measurement": "relative viability", "setting": "[1]; first compound 0.08 µM", "value": 0.748},
      {"measurement": "relative viability", "setting": "[1]; first compound 0.253 µM", "value": 0.803},
      {"measurement": "relative viability", "setting": "[1]; first compound 0.8 µM", "value": 0.795},
      {"measurement": "relative viability", "setting": "[1]; first compound 2.53 µM", "value": 0.696},
      {"measurement": "relative viability", "setting": "[1]; first compound 8 µM", "value": 0.633},
      {"measurement": "relative viability", "setting": "[2]; first compound 0.08 µM", "value": 0.668},
      {"measurement": "relative viability", "setting": "[2]; first compound 0.253 µM", "value": 0.406},
      {"measurement": "relative viability", "setting": "[2]; first compound 0.8 µM", "value": 0.517},
      {"measurement": "relative viability", "setting": "[2]; first compound 2.53 µM", "value": 0.41},
      {"measurement": "relative viability", "setting": "[2]; first compound 8 µM", "value": 0.584},
      {"measurement": "relative viability", "setting": "[3]; first compound 0.04 µM", "value": 0.42},
      {"measurement": "relative viability", "setting": "[3]; first compound 0.1265 µM", "value": 0.359},
      {"measurement": "relative viability", "setting": "[3]; first compound 0.4 µM", "value": 0.339},
      {"measurement": "relative viability", "setting": "[3]; first compound 1.265 µM", "value": 0.288},
      {"measurement": "relative viability", "setting": "[3]; first compound 4 µM", "value": 0.48},
      {"measurement": "relative viability", "setting": "[4]; first compound 0.04 µM", "value": 0.485},
      {"measurement": "relative viability", "setting": "[4]; first compound 0.1265 µM", "value": 0.439},
      {"measurement": "relative viability", "setting": "[4]; first compound 0.4 µM", "value": 0.476},
      {"measurement": "relative viability", "setting": "[4]; first compound 1.265 µM", "value": 0.39},
      {"measurement": "relative viability", "setting": "[4]; first compound 4 µM", "value": 0.411}
    ]},
    {"cell line": "NCI-H1792", "values": [
      {"measurement": "relative viability", "setting": "[1]; first compound 0.08 µM", "value": 0.97},
      {"measurement": "relative viability", "setting": "[1]; first compound 0.8 µM", "value": 0.626},
      {"measurement": "relative viability", "setting": "[1]; first compound 2.53 µM", "value": 0.75},
      {"measurement": "relative viability", "setting": "[1]; first compound 8 µM", "value": 0.684},
      {"measurement": "relative viability", "setting": "[2]; first compound 0.08 µM", "value": 0.514},
      {"measurement": "relative viability", "setting": "[2]; first compound 0.8 µM", "value": 0.982},
      {"measurement": "relative viability", "setting": "[2]; first compound 2.53 µM", "value": 0.571},
      {"measurement": "relative viability", "setting": "[2]; first compound 8 µM", "value": 0.354},
      {"measurement": "relative viability", "setting": "[3]; first compound 0.04 µM", "value": 0.49},
      {"measurement": "relative viability", "setting": "[3]; first compound 0.1265 µM", "value": 0.434},
      {"measurement": "relative viability", "setting": "[3]; first compound 1.265 µM", "value": 0.396},
      {"measurement": "relative viability", "setting": "[3]; first compound 4 µM", "value": 0.432},
      {"measurement": "relative viability", "setting": "[4]; first compound 0.04 µM", "value": 0.348},
      {"measurement": "relative viability", "setting": "[4]; first compound 0.1265 µM", "value": 0.244},
      {"measurement": "relative viability", "setting": "[4]; first compound 0.4 µM", "value": 0.309},
      {"measurement": "relative viability", "setting": "[4]; first compound 1.265 µM", "value": 0.259},
      {"measurement": "relative viability", "setting": "[4]; first compound 4 µM", "value": 0.242}
    ]},
    {"cell line": "NCI-H1793", "values": [
      {"measurement": "relative viability", "setting": "[1]; first compound 0.08 µM", "value": 0.308},
      {"measurement": "relative viability", "setting": "[1]; first compound 0.253 µM", "value": 0.331},
      {"measurement": "relative viability", "setting": "[1]; first compound 0.8 µM", "value": 0.307},
      {"measurement": "relative viability", "setting": "[1]; first compound 2.53 µM", "value": 0.23},
      {"measurement": "relative viability", "setting": "[1]; first compound 8 µM", "value": 0.236},
      {"measurement": "relative viability", "setting": "[2]; first compound 0.08 µM", "value": 0.676},
      {"measurement": "relative viability", "setting": "[2]; first compound 0.253 µM", "value": 0.407},
      {"measurement": "relative viability", "setting": "[2]; first compound 0.8 µM", "value": 0.505},
      {"measurement": "relative viability", "setting": "[2]; first compound 2.53 µM", "value": 0.366},
      {"measurement": "relative viability", "setting": "[2]; first compound 8 µM", "value": 0.276},
      {"measurement": "relative viability", "setting": "[3]; first compound 0.04 µM", "value": 0.577},
      {"measurement": "relative viability", "setting": "[3]; first compound 0.1265 µM", "value": 0.168},
      {"measurement": "relative viability", "setting": "[3]; first compound 0.4 µM", "value": 0.182},
      {"measurement": "relative viability", "setting": "[3]; first compound 1.265 µM", "value": 0.181},
      {"measurement": "relative viability", "setting": "[3]; first compound 4 µM", "value": 0.215},
      {"measurement": "relative viability", "setting": "[4]; first compound 0.04 µM", "value": 0.393},
      {"measurement": "relative viability", "setting": "[4]; first compound 0.1265 µM", "value": 0.381},
      {"measurement": "relative viability", "setting": "[4]; first compound 0.4 µM", "value": 0.383},
      {"measurement": "relative viability", "setting": "[4]; first compound 1.265 µM", "value": 0.389},
      {"measurement": "relative viability", "setting": "[4]; first compound 4 µM", "value": 0.309}
    ]}
  ]
}
